Laboratory results taken from patent US9737514B2, “Methods and compositions for the treatment of proliferative vascular disorders” (Children's Medical Center Corporation, priority 2011, dated 2017).

Columns and labels:
HemSCs [1] = settings: cited from earlier work
HemSC = test: Calcium influx assay by fluorescence microscopy; assay type: cell-based, human
Method: FIG. 10B depicts graphs of the effect of nifedipine on spontaneous Ca^2+ oscillations in HemSC treated with Rapamycin or DMSO for 6 days. Each line indicates the whole-cell Ca^2+ changes in an individual cell.
To test for functional features of SMCs, calcium influx in HemSC treated with Rapamycin or DMSO for six days was analyzed.
To monitor cellular calcium influxes, HemSC treated with Rapamycin (20 ng/ml) or DMSO for six days were labeled with a single wavelength calcium dye, Fluo-4 (1 Molecular Probes), by incubation in 5% CO2 at 37° C. for 20 min. […] Fluorescence intensity at a single wavelength (488 nm excitation) over time was followed using a Nikon Eclipse TE-2000-E Fluorescence microscope equipped with a 1000 W High Pressure Mercury Burner (Olympus Optical Company). Alterations in intracellular calcium were quantified by measuring changes in fluorescence intensity in a region of interest drawn over the entire cell including the nucleus. Background fluorescence was subtracted from fluorescence values at each time point. Results are presented as F/Fo, where F is the average fluorescence intensity in the region of interest (ROI) at each time point during time lapse imaging, and Fo is the fluorescence intensity in the ROI at time=0. […]

[2] = test system: HemSCs and cbEPCs in Matrigel; test: Two cell model of IH (HemSCs and cbEPCs in Matrigel), systemic drug; assay type: in vivo, nude mice; settings: daily intra-peritoneal injection; for vascularization of Matrigel implants / formation of blood vessels (MVD): compared with vehicle
Method: (§1) Next, the effect of systemic Rapamycin was tested in a two cell model of IH described previously (Greenberger et al., 2010). HemSCs and cbEPCs were mixed with Matrigel and injected subcutaneously in nude mice. This two-cell model has advantages over injecting HemSC alone: first it is more robust and thus more sensitive for detecting dose-response activity. Second, it allows one to test separately the effect of rapamycin on the HemSC versus cbEPCs, which are primary ECs isolated from cord blood that serve as prototypic young ECs. Rapamycin was administered daily by intra-peritoneal injection.
To test this concept, mice were given i.p. injections of low dose of dexamethasone (0.25 mg/kg), low dose of Rapamycin (0.25 mg/kg) or the combination of both.
(§2) Nude/Nude mice were purchased from Massachusetts General Hospital animal facility. Procedures were approved by the Animal Care and Use Committees of the Children's Hospital, Boston. Anesthesia was induced with 4% isofluorane and maintenance in 1-3% oxygen. Mice were anesthetized once for up to 5 min. The one cell and two cell models of IH were performed as reported (Greenberger et al., 2010; Khan et al., 2008) and microvessel density (MVD) was assessed by counting red blood cell-filled lumens (Melero-Martin et al., 2007). Values reported for each experimental condition correspond to the average MVD value±standard error of the mean (SEM) obtained from all the individual animals.
Rapamycin, Everolimus and Temsirolimus were purchased from LC Laboratories. Drugs were dissolved in DMSO followed by solvent solution (5% polyethylene glycol, 0.2% carboxymethylcellulose and 0.25% Tween-80 in H2O). Aliquots were kept in −20° C. Mice were given daily intra-peritoneal (i.p.) injections containing 200 μl of drug or the vehicle alone.

[3] = test system: HemSCs and cbEPCs in Matrigel; test: Regression of pre-existing vessels, contrast-enhanced micro-ultrasonic imaging of Matrigel implants; assay type: in vivo, nude mice; settings: 2 mg/kg i.p.
Method: To test this, contrast-enhanced micro-ultrasonic imaging was used to measure blood flow in the Matrigel implants. […] For the experiment, mice were injected with cells and imaged at day 7 to record baseline blood flow in the implants. Mice were then randomized into two groups: Rapamycin, 2 mg/kg by i.p. injection or vehicle alone by i.p. injection. At day 17, follow-up imaging was performed.
Contrast-enhanced high resolution ultrasonic (US) imaging of the blood flow in Matrigel implants was performed using a Vevo 770 System with a 40-MHz RMV scanhead (Visual Sonics) (Loveless et al., 2009; Olive et al., 2009). MicroMarker non-targeting contrast agent (Visualsonics) was prepared according to manufacturer's guidelines. For imaging, mice were anesthetized with 2% isofluorane, coupling gel was applied to cover the entire region of interest, and 2-D B-mode scout images established the central slice of the Matrigel. The transducer was placed such that the 6 mm focal spot converged at the center of the Matrigel. Baseline images were acquired in Contrast Mode, and a 50 μL bolus of contrast agent suspension was administered via tail vein catheter during acquisition of a second contrast video.

HemSCs [4] = test: HemSC proliferation dose-response; assay type: cell-based, human
Method: (§3) FIG. 1A depicts dose-response curves of HemSCs (squares), NHDF (triangles), and BM-MSCs (circles) treated with Rapamycin. Error bars denote standard deviation (SD) (n=32). FIG. 1B depicts a graph of the quantification of PCNA-positive cells in HemSCs treated with Rapamycin. Error bars denote SD (n=8). *P<0.05 compared with the non-treated group. FIG. 1C depicts the results of a Western blot for phospho4EBP-1(565) and total 4EBP-1 in HemSCs serum-starved for 24 hours, pretreated with vehicle alone (“0”) or rapamycin for 20 minutes and then stimulated with media containing serum and growth factors for 30 minutes. FIG. 1D depicts a graph of the bands in FIG. 1C quantified using ImageJ; normalized to β-actin.
(§4) Proliferating cell nuclear antigen (PCNA) served as an additional measure of proliferation (Prelich et al., 1987) (Hall and Levison, 1990).
(§5) To do this, the anti-proliferative drug Roscovitine, a purine analogue andcyclin-dependent kinase inhibitor (De Azevedo et al., 1997) (Meijer et al., 1997) was used. First, the effect of Roscovitine on HemSCs proliferation was titrated in vitro. […] Next, HemSCs were pre-treated in vitro for three days with either Roscovitine or Rapamycin, the drugs washed out, and the cells then injected with untreated cbEPC into mice.

cbEPCs [5] = test: Two cell model of IH with cbEPCs pre-treated in vitro; assay type: in vivo, nude mice
HemSCs [6] = test: Viability / cell morphology by phalloidin staining; assay type: cell-based, human
[7] = test system: human ECs, including HemECs; test: PLGF-1 expression in endothelial cells (ELISA, RT-PCR); assay type: cell-based; settings: 48 hours of incubation
Method: FIG. 11C depicts a graph of quantitative ELISA analysis of PLGF-1 protein secreted from HemECs and Human Dermal Microvascular Endothelial Cells (HDMECs) following 48 hours of incubation with Rapamycin. FIG. 11D depicts a graph of the dose-response of Rapamycin on PLGF-1 mRNA expression in HemECs. Quantitative RT-PCR analyses of HemECs PLGF-1 expression following 48 hours of incubation with Rapamycin at the indicated concentration. FIG. 11E depicts a graph of the dose-response of Rapamycin on PLGF-1 protein secretion from HemECs. PLGF-1 was measured by quantitative ELISA analysis following 48 hours of incubation with Rapamycin at the indicated concentration.
(§6) An enzyme-linked immunoassay (ELISA) was performed using Quantikine Human VEGF and PLGF (R&D Systems). […]

cbEPCs [8] = test: Endothelial proliferation assay; assay type: cell-based, human; settings: 20 ng/ml, 48 hours, not rescued by VEGF-A or PLGF-1
Method: FIG. 11A depicts a graph of cell number of cbEPCs treated for 48 hours with Rapamycin or (20 ng/ml) DMSO as a control, in the presence of either VEGF-A (37.5 ng/ml), PLGF-1 (37.5 ng/ml) or the combination. Cell number was quantified by automatic microscopy and software analysis. Bars denote the standard deviation with n=32 for each treatment combination. FIG. 11B depicts a graph of cell number of cbEPCs treated for 48 hours with Everolimus (20 ng/ml), Temsirolimus (200 ng/ml) or DMSO as a control, in the presence of VEGF-A (37.5 ng/ml) or PLGF-1 (37.5 ng/ml). Cell number was quantified by automatic microscopy and software analysis. Bars denote the standard deviation with n=32 for each treatment combination.
To study this effect, Rapamycin was tested on cbEPCs.
cbEPCs at passages 6-10 were plated in 384-well plates at 1000 cells per well. 24 hours later, media was removed and replaced with EBM-2 5% fetal bovine serum media containing the recombinant human proteins VEGF-A at 37.5 ng/ml (R&D Systems) or PlGF-1 at 37.5 ng/ml (R&D Systems), and the drug compounds Rapamycin (20 ng/ml), Everolimus 20 ng/ml or Temsirolimus 200 ng/ml in replicates of 32. 48 hours later, cells were fixed and stained with Hoechst (Invitrogen). Following image capture by automated fluorescence microscopy, cell number was determined using MetaXpress Software.

HemSCs [9] = test: Endothelial differentiation of HemSCs; assay type: cell-based, human; settings: in vitro
Method: (§7) Whether the multi-lineage differentiation of HemSCs could be altered by Rapamycin was assayed.
(§8) Differentiation assays towards endothelial cells and adipocytes were done as reported (Khan et al., 2008).

HemSCs [10] = test: Adipogenic differentiation of HemSCs; assay type: cell-based, human; settings: adipogenic differentiation protocol
Method: as §7, §8

HemSCs [11] = test: PCNA immunostaining of HemSCs; assay type: cell-based, human; settings: 10 ng/ml
Method: as §4
Human-specific CD31 (DakoCytomation) immunostaining was performed as described (MeleroMartin et al., 2007), (Roelofs et al., 2003). PhosphoAKT/VE-cadherin double immunofluorescence was done on cryosections. Slides were fixed with 8% paraformaldehyde, blocked with 1% BSA and incubated with anti-VE-Cadherin (goat, Santa Cruz Biotechnology, Santa Cruz, Calif.) 1:100 for one hour, followed by anti-goat Texas-Red (Vector Labs, Burlingame, Calif.) 1:200. Following an additional blocking step (1% BSA, 0.1% Triton-X), AntipAKT (mouse, Cell Signaling, Danvers, Mass.) 1:100, was applied over night in 4° C. and next, anti-mouse Alexa Fluor 488 (Invitrogen) 1:300 for one hour. PCNA immunostaining was done using anti-PCNA 1:500 (mouse, Santa Cruz Biotechnology, Santa-Cruz, Calif.). For immunostaining of paraffing embedded Matrigel explants, antigen retrieval was done by citrate buffer. Sections were blocked by 5% horse serum and incubated with a secondary anti-mouse horseradish peroxidase (HRP) conjugate at 1:300 (Vector Labs, Burlingame, Calif.). For immunofluorescence, cells were fixed with methanol, blocked by 1% BSA.

mTOR = test: Western blot of phosphorylated 4EBP1 in HemSCs; assay type: cell-based, human; settings: HemSCs serum-starved 24 hours, pretreated 20 minutes
Method: as §3

HemSCs [12] = test: Two cell model of IH with HemSCs pre-treated in vitro; assay type: in vivo, nude mice
Excerpt: To test whether or not HemSCs are a target of Rapamycin, versus the cbEPCs or a murine host cell, HemSCs were pre-treated with Rapamycin for three days in vitro, the drug was washing out, and the Rapamycin-treated or control HemSCs were resuspended with cbEPCs in Matrigel, and injected into mice.
as §5, §2

HemSCs in Matrigel = test: One cell model of IH (HemSC implanted alone); assay type: in vivo, nude mice; settings: i.p. on days 1-6, explanted day 7
Method: as §1, §2

HemSCs [13] = test: Clonogenic assay (self-renewal); assay type: cell-based, human; settings: pre-treatment 20 ng/ml 4 days, colonies at 9 days
Method: To test self-renewal capacity of HemSCs, a clonogenic assay was performed (Ingram et al., 2004).
HemSCs were incubated with Rapamycin 20 ng/ml or DMSO, as a control, for 4 days. Following washout of the drug, cells were serially diluted to 8 cells per ml and plated in 384 well plates, 40 μl/well. Medium was replaced every 48 hours. At day 9, cells were fixed and stained with Hoechst. Following image capture by automated fluorescence microscopy, colony formation and the number of cells/colony were determined by quantifying the number of wells with Hoechst-stained nuclei and the number of Hoechst-stained nuclei/well using MetaXpress Software.

HemSCs [14] = test: SMC/pericyte marker expression in HemSCs (qPCR, Western blot); assay type: cell-based, human
HemSCs [15] = test: Pro-angiogenic cytokine expression (antibody array, ELISA, qPCR); assay type: cell-based, human
Method: To investigate whether corticosteroids and Rapamycin share common mechanisms for suppressing HemSCs-mediated vascularization, the effect of Rapamycin on expression of a panel of 43 pro-angiogenic proteins was evaluated.
Angiogenic Cytokine Antibody Array. Conditioned media from HemSCs and HemECs, treated or untreated with dexamethasone or Rapamycin, were analyzed for protein expression using RayBio® Human Angiogenesis Antibody Array C Series 1000 (RayBiotech); according to the manufacturer's instructions. Blots were analyzed by with image J software (NIH).
as §6

BM-MSCs = test: BM-MSC proliferation dose-response; assay type: cell-based, human; settings: FIG. 1A
Method: as §3, §4

[16] = test system: normal human dermal fibroblasts (NHDF); test: NHDF proliferation dose-response; assay type: cell-based; settings: FIG. 1A
Method: as §3, §4

## C[C@@H]1C[C@H]2[C@@H]3CCC4=CC(=O)C=C[C@]4(C)[C@@]3(F)[C@@H](O)C[C@]2(C)[C@@]1(O)C(=O)CO [Dexamethasone, dexamethasone]
HemSCs [1]
  VEGF-A, IL-6, MMP-1, MCP-1 and UPAR expression: suppressed

## COC(=O)C1=C(C)NC(C)=C(C(=O)OC)C1c1ccccc1[N+](=O)[O-] [Nifedipine, nifedipine]
HemSC; 10 uM, Rapamycin-treated HemSC
  spontaneous Ca2+ oscillations: cessation of oscillations

## CO[C@H]1C[C@@H]2CC[C@@H](C)[C@@](O)(O2)C(=O)C(=O)N2CCCC[C@H]2C(=O)O[C@H]([C@H](C)C[C@@H]2CC[C@@H](OCCO)[C@H](OC)C2)CC(=O)[C@H](C)/C=C(\C)[C@@H](O)[C@@H](OC)C(=O)[C@H](C)C[C@H](C)/C=C/C=C/C=C/1C [everolimus]
[2]
  vascularization of Matrigel implants / formation of blood vessels (MVD): significantly inhibited

## CO[C@H]1C[C@@H]2CC[C@@H](C)[C@@](O)(O2)C(=O)C(=O)N2CCCC[C@H]2C(=O)O[C@H]([C@H](C)C[C@@H]2CC[C@@H](O)[C@H](OC)C2)CC(=O)[C@H](C)/C=C(\C)[C@@H](O)[C@@H](OC)C(=O)[C@H](C)C[C@H](C)/C=C/C=C/C=C/1C [Rapamycin, rapamycin]
[3]
  vascularization of Matrigel implants macroscopically and by histological analysis: less vascularized
[3]; day 7 to day 17
  blood flow in the implant (contrast intensity): reduced blood flow
HemSCs [4]; concentrations of 1 ng/ml and higher
  inhibition of HemSCs proliferation: ~40%
cbEPCs [5]
  blood vessel formation after pre-treatment of cbEPCs: no effect
HemSCs [6]
  viability (normal cell morphology, phalloidin staining): not affected
[7]
  endogenous PLGF-1: dose-dependent suppression
cbEPCs [8]
  growth of cbEPCs: suppressed growth
HemSCs [9]
  ability of HemSCs to differentiate towards an endothelial phenotype: No effect
HemSCs [10]
  expression of adipogenic markers LPL, C/EBP-α and accumulation of lipid droplets: blocked expression
HemSCs [11]
  suppression of percentage of PCNA-positive HemSCs: 80%
mTOR
  constitutive and serum/growth factor stimulated levels of phosphorylated 4EBP1: dose-dependent decrease
HemSC; HemSC treated 20 ng/ml six days
  functional features of SMCs (calcium influx): express L-type voltage gated channels
HemSCs [12]; HemSCs pre-treated in vitro three days, washed out, injected with untreated cbEPC (Roscovitine comparison experiment)
  inhibition of microvessel density: 60%
HemSCs [12]; HemSCs pre-treated three days in vitro, drug washed out, injected with cbEPCs
  inhibition of blood vessel formation: 80%
HemSCs in Matrigel
  vessel formation, HemSC implanted alone: inhibited vessel formation
HemSCs [13]
  appearance of colonies with >500 cells: abolished
  decrease in the number of HemSC colonies formed: 60%
HemSCs [14]; FIG. 10A
  expression levels of calponin, NG2 and PDGF-Rβ: unchanged
HemSCs [14]; incubation four days
  SM22-alpha and αSMA at the protein level: increased
  smMHC and SM22-alpha transcript levels: upregulation
HemSCs [15]
  expression of VEGF-A by HemSCs at the mRNA or protein level: did not block
HemSCs [15]; in HemSCs and cbEPCs
  angiogenin and PLGF-1 expression: downregulated
[2]; anti-human CD31 staining
  de novo formation of human CD31-positive blood vessels: inhibited the de novo formation
[2]
  vascularization of Matrigel implants / formation of blood vessels (MVD): dose-dependent inhibition
BM-MSCs
  sensitivity of BM-MSCs proliferation compared with HemSCs: less sensitive
[16]
  sensitivity of NHDF proliferation compared with HemSCs: less sensitive

## CO[C@H]1C[C@@H]2CC[C@@H](C)[C@@](O)(O2)C(=O)C(=O)N2CCCC[C@H]2C(=O)O[C@H]([C@H](C)C[C@@H]2CC[C@@H](OC(=O)C(C)(CO)CO)[C@H](OC)C2)CC(=O)[C@H](C)/C=C(\C)[C@@H](O)[C@@H](OC)C(=O)[C@H](C)C[C@H](C)/C=C/C=C/C=C/1C [temsirolimus]
[2]
  vascularization of Matrigel implants / formation of blood vessels (MVD): significantly inhibited

## CC[C@H](CO)Nc1nc(NCc2ccccc2)c2ncn(C(C)C)c2n1 [Roscovitine]
HemSCs [4]; Homo sapiens, read-out: inhibition of HemSCs proliferation
  inhibition at 3.125 µM: 55%
HemSCs [12]; HemSCs pre-treated in vitro three days, washed out, injected with untreated cbEPC
  inhibition of microvessel density (in words): did not
